Experimental data taken from patent US10197556B2, “Methods to detect non-genotoxic carcinogens using flatworms” (Universiteit Gent, priority 2015, dated 2019).
Where a name gives a salt, the structure may show the parent alone. Read-outs that look alike come from different tables or passages of the source.

Assays:
[1] = Solubility of test compound in the exposure medium; type: physicochemical; conditions: concentrations higher than 5 mM
Schmidtea mediterranea [2] = conditions: in vivo
Method: Asexual strains of the freshwater planarian Schmidtea mediterranea (38, 45) were maintained in culture medium, consisting of water, that was first deionized and then distilled, and to which the following nutrients were added: 1.6 mM NaCl, 1.0 mM CaCl2, 1.0 mM MgSO4, 0.1 mM MgCl2, 0.1 mM KCl and 1.2 mM NaHCO3. The animals were continuously kept in the dark at a room temperature of 20° C. and were fed once a week with veal liver. […]
In each experimental condition, animals were cut transversally immediately before exposure to a genotoxic, non-genotoxic or non-carcinogen concentration, medium (control) or medium with DMSO (vehicle control). […] Stem cell proliferation was measured after one day of regeneration (the mitotic minimum of regeneration), after three days (the mitotic maximum of regeneration), after one week (the end stage of regeneration) after two and six weeks (during homeostasis), as well as at the appearance of organismal phenotypes (15, 46, 47). Phenotypic effects were monitored daily with a stereo microscope.

Macrostomum lignano = conditions: for prediction by the assay in the experiments: outcome over the experiments; for Overall prediction: final prediction call over three experiments
Method: Cultures of Macrostomum lignano (37) were grown in artificial seawater (ASW) enriched with f/2-medium (40) and fed ad libitum with the diatom Nitzschia curvilineata (PAE culture collection; UGent on the World Wide Web at pae.ugent.be/collection.htm), as described in references 41 and 43.
One week before starting chemical exposure, a six-well plate filled with 4 ml f/2 medium (Novolab NV) was inoculated with diatoms to achieve an ad libitum food source during exposure. Starvation of the worms leads to a decrease in stem cell proliferation (as shown in Nimeth et al (29)), which would interfere with stem cell proliferation, the endpoint of the assay. Before the start of exposure, fifteen adult worms per condition were pipetted in each well, which was then emptied by pipetting without drying out the worms and refilled with f/2 medium (control), if required, F2+0.05% DMSO (vehicle control) and a concentration of the chemical.
The DMSO concentration in the vehicle control never exceeded 0.05%. This represented the maximum DMSO percentage in the chemical's highest test concentration.
To select the appropriate compound concentration, first, a broad concentration range-finding experiment (spacing factor 10; two weeks exposure) was carried out. Based on this pilot range finding, a fine-tuned range finding (spacing factor less than or equal to 2; for D-Mannitol factor 5) was chosen to conduct the assay. The maximum concentration tested depended on the test compound solubility and the requirement of a survival of twelve out of fifteen worms at the end of exposure.
For all chemicals investigated in this disclosure, the medium was refreshed weekly.
After a preliminary test (CP as reference) on different exposure times ranging from two days to six weeks, the worms were exposed for a period of two weeks, after which they were subjected to phosphorylated histone H3 immunostaining (PH3) to quantify mitosis.
To quantify mitotic cells in whole mount specimens, the mitotic marker anti-PH3 was used. The staining was performed by first relaxing the animals in a 1:1 mixture of MgCl2.6H2O (7.14%) and ASW (5 minutes), then in MgCl2.6H2O (7.14%) (undiluted, 5 minutes), followed by fixation in paraformaldehyde (PFA, 4% in PBS, 60 minutes). Animals were then rinsed with phosphate-buffered saline (PBS, 3×5 minutes) and blocked in bovine serum albumin, containing TRITON® (BSA-T, 0.1% TRITON® X-100, 60 minutes). Subsequently, animals were incubated in primary rabbit-anti-phos-H3 (1:300 in BSA-T, overnight, 4° C., Upstate Biotechnology), rinsed in PBS (3×5 minutes) and incubated in secondary TRITC-conjugated swine-anti-rabbit (1:150 in BSA-T, 1 hour, DAKO). Finally, animals were washed with PBS (3×5 minutes) and slides were mounted using Vectashield (Vector Laboratories). Slides were analyzed using a Leica 2500P microscope equipped with epifluorescence, a 40× objective and a DFC360FX CCD camera.
All somatic PH3-positive cells were counted manually using the Image J cell counter plugin (44) (FIG. 1). Gonadal PH3+ cells were not included in the analysis because of 1) the high density of divisions in that region that can lead to overlapping signals and 2) the germ line representing a separate population of cells, differentially tolerant to exposure, which can result in quantification variability.
The cut-off value of the assay was determined based on density plots (R version 2.15.3; (33)) of the number of mitotic stem cells of all experiments for controls (sea water and DMSO), non-carcinogens, genotoxic carcinogens and non-genotoxic carcinogens. The cut-off value of 30 lays in the tail of the distribution corresponding to the 97.5 percentile or two standard deviations.
Concentrations resulting in the death of 20% of the worms (three out of fifteen) during exposure were considered cytotoxic and were not analyzed.

Schmidtea mediterranea [3] = test system: Schmidtea mediterranea
Method: Asexual strains of the freshwater planarian Schmidtea mediterranea (38, 45) were maintained in culture medium, consisting of water, that was first deionized and then distilled, and to which the following nutrients were added: 1.6 mM NaCl, 1.0 mM CaCl2, 1.0 mM MgSO4, 0.1 mM MgCl2, 0.1 mM KCl and 1.2 mM NaHCO3. The animals were continuously kept in the dark at a room temperature of 20° C. and were fed once a week with veal liver.
Experiments were performed with regenerating animals (heads and tails) to accelerate initial responses to carcinogenic compounds, as this process of massive cell proliferation, migration and differentiation resembles the process of carcinogenesis, and, possibly differently affects the dynamics of stem cells toward genotoxic and non-genotoxic carcinogen exposures (16, 32, 39).
In each experimental condition, animals were cut transversally immediately before exposure to a genotoxic, non-genotoxic or non-carcinogen concentration, medium (control) or medium with DMSO (vehicle control). Exposures were performed in six-well plates (4 ml/well). To exclude intrinsic effects of DMSO on cell proliferation, the DMSO vehicle concentration never exceeded 0.05% and interaction effects between the test compound and DMSO were investigated using a two-way ANOVA (32). […] Animals were fed once a week with veal liver and starved for one week before stem cell proliferation measurements. Stem cell proliferation was measured after one day of regeneration (the mitotic minimum of regeneration), after three days (the mitotic maximum of regeneration), after one week (the end stage of regeneration) after two and six weeks (during homeostasis), as well as at the appearance of organismal phenotypes (15, 46, 47). Phenotypic effects were monitored daily with a stereo microscope.
An in vivo study allows the investigation of the entire organism's response to carcinogenic compounds and, as such, makes it possible to link carcinogen-induced stem cell proliferation with the organism's phenotype. Conditions were subdivided according to their phenotypic effects into concentrations that caused no observable phenotypic effects (category 1), phenotypic effects (category 2, described in phenotypic effect screening) and concentrations that induced organismal death (category 3). Phenotypic parameters that were monitored daily were tissue regression, lesion, blisters, bloating, pigmentation, behavior, regenerative success, body size, tissue outgrowth, flattened posture and organismal death (35). Stem cell proliferation was quantified at the appearance of systemic effects (category 2 concentrations).

[4] = 1000 μM, Experiment 1, two weeks exposure
[5] = 1000 μM, Experiment 2, two weeks exposure
[6] = 1000 μM, Experiment 3, two weeks exposure
[7] = all three experiments, two weeks exposure
[8] = 100 μM, Experiment 2, two weeks exposure
[9] = 100 μM, Experiment 3, two weeks exposure
[10] = Experiment 2, all concentrations, two weeks exposure
[11] = Experiment 3, all concentrations, two weeks exposure
[12] = category 2 concentrations, three days (MMS), one week (4NQO), two weeks (S-PB, CPZ, MPH)
[13] = asexual strain, Schmidtea mediterranea, in vivo
[14] = asexual strain, Schmidtea mediterranea, in vivo, 2 weeks
[15] = 0.3125 μM, Experiment 1, two weeks exposure
[16] = 0.3125 μM, Experiment 3, two weeks exposure
[17] = 0.625 μM, Experiment 1, two weeks exposure
[18] = 0.625 μM, Experiment 2, two weeks exposure
[19] = 0.625 μM, Experiment 3, two weeks exposure

## OC[C@@H](O)[C@@H](O)[C@H](O)[C@H](O)CO [D-mannitol]
[1]
  solubility in the medium: insolubility in the medium
Schmidtea mediterranea [2]
  effects on proliferative responses: no significant effects
Macrostomum lignano; [4]
  proportion of worms having 30 or more mitotic stem cells: 0%
Macrostomum lignano; [5]
  proportion of worms having 30 or more mitotic stem cells: 0%
Macrostomum lignano; [6]
  proportion of worms having 30 or more mitotic stem cells: 0%
Macrostomum lignano; 5000 μM, Experiment 1, two weeks exposure
  proportion of worms having 30 or more mitotic stem cells: 0%
Macrostomum lignano; 5000 μM, Experiment 2, two weeks exposure
  proportion of worms having 30 or more mitotic stem cells: 0%
Macrostomum lignano; 5000 μM, Experiment 3, two weeks exposure
  proportion of worms having 30 or more mitotic stem cells: 0%
Macrostomum lignano; [7]
  concentration up to which predicted negative: up to 5 mM
Macrostomum lignano; all three experiments, up to 5 mM, two weeks exposure
  worms having a number of mitotic stem cells exceeding the cut-off value: 0%
Macrostomum lignano; two weeks exposure
  prediction by the assay in the experiments: predicted negative by the assay for all three experiments
Schmidtea mediterranea [3]; in vivo
  phenotypic effects induced by exposure: no phenotypic effects

## O=P1(N(CCCl)CCCl)NCCCO1 (stereo not shown) [Cyclophosphamide monohydrate]
Macrostomum lignano; 50 μM, Experiment 1, two weeks exposure
  proportion of worms having 30 or more mitotic stem cells: 0%
Macrostomum lignano; 50 μM, Experiment 2, two weeks exposure
  proportion of worms having 30 or more mitotic stem cells: 0%
Macrostomum lignano; 50 μM, Experiment 3, two weeks exposure
  proportion of worms having 30 or more mitotic stem cells: 16.7%
Macrostomum lignano; 100 μM, Experiment 1 (only three worms quantified, experiment excluded), two weeks exposure
  proportion of worms having 30 or more mitotic stem cells: 66.7%
Macrostomum lignano; [8]
  Pred: + (+ in case 20% or more worms having 30 or more mitotic stem cells)
  proportion of worms having 30 or more mitotic stem cells: 20%
Macrostomum lignano; [9]
  Pred: + (+ in case 20% or more worms having 30 or more mitotic stem cells)
  proportion of worms having 30 or more mitotic stem cells: 33.3%
Macrostomum lignano; [10]
  Prediction of the experiment: Pos
Macrostomum lignano; [11]
  Prediction of the experiment: Pos
Macrostomum lignano
  Overall prediction: Pos
Macrostomum lignano; two weeks exposure
  concentrations predicted positive: 100 µM
  prediction by the assay in the experiments: predicted positive in all experiments

## Cc1noc(NS(=O)(=O)c2ccc(N)cc2)c1C [Sulfisoxazole]
Macrostomum lignano; […] μM, Experiment 1, two weeks exposure
  proportion of worms having 30 or more mitotic stem cells: 0%
Macrostomum lignano; […] μM, Experiment 3, two weeks exposure
  proportion of worms having 30 or more mitotic stem cells: 0%
Macrostomum lignano; 500 μM, Experiment 1, two weeks exposure
  proportion of worms having 30 or more mitotic stem cells: 0%
Macrostomum lignano; 500 μM, Experiment 2, two weeks exposure
  proportion of worms having 30 or more mitotic stem cells: 11.1%
Macrostomum lignano; 500 μM, Experiment 3, two weeks exposure
  proportion of worms having 30 or more mitotic stem cells: 0%
Macrostomum lignano; [4]
  proportion of worms having 30 or more mitotic stem cells: 0%
Macrostomum lignano; [5]
  proportion of worms having 30 or more mitotic stem cells: 0%
Macrostomum lignano; [6]
  proportion of worms having 30 or more mitotic stem cells: 0%
Macrostomum lignano; [7]
  concentration up to which predicted negative: up to 1 mM
Macrostomum lignano; concentrations higher than the highest analyzed (Sox >1 mM, CP >100 μM, 4NQO >0.5 μM)
  lethality of the worms: greater than 20%
Macrostomum lignano; two weeks exposure
  prediction by the assay in the experiments: predicted negative for all three experiments

## COS(C)(=O)=O [MMS, methyl methane sulphonate]
Schmidtea mediterranea [3]; MMS, exposure three days
  Cat. 2 concentrations: Phenotypic effects: 400 to 500 µM
  Cat. 3 concentrations: Mortality: 1 mM
Schmidtea mediterranea [3]; [12]
  Number of animals with Behavior effects: 14/14
  Number of animals with Body size effects: 10/14
  Number of animals with Pigmentation: 1/14
  Number of animals with Regenerative success effects: 14/14
  Number of animals with Tissue regression: 3/14

## O=[N+]([O-])c1cc[n+]([O-])c2ccccc12 [4-Nitroquinoline-1-oxide]
Macrostomum lignano; 0.125 μM, Experiment 2, two weeks exposure
  proportion of worms having 30 or more mitotic stem cells: 16.7%
Macrostomum lignano; 0.5 μM, Experiment 1, two weeks exposure
  proportion of worms having 30 or more mitotic stem cells: 77.8%
Macrostomum lignano; 0.5 μM, Experiment 2, two weeks exposure
  proportion of worms having 30 or more mitotic stem cells: 0%
Macrostomum lignano; 0.5 μM, Experiment 3, two weeks exposure
  proportion of worms having 30 or more mitotic stem cells: 36.4%
Schmidtea mediterranea [3]; 4NQO, exposure one week
  Cat. 1 concentrations: No effects on phenotype: 0.1 to 0.5 µM
  Cat. 2 concentrations: Phenotypic effects: 2 µM
  Cat. 3 concentrations: Mortality: 0.005 mM
Schmidtea mediterranea [3]; [12]
  Number of animals with Behavior effects: 3/4
  Number of animals with Pigmentation: 2/4
  Number of animals with Regenerative success effects: 4/4
  Number of animals with Tissue regression: 2/4

## CN(C)CCCN1c2ccccc2Sc2ccc(Cl)cc21 [CPZ, chlorpromazine hydrochloride]
Schmidtea mediterranea [3]; [13]
  Number of animals with Behavior effects: 4/4
  Number of animals with Body size effects: 2/2
  concentrations that trigger phenotypic effects: 1 µM
Schmidtea mediterranea [3]; [14]
  Cat. 1 concentrations: No effects on phenotype: 0.25 to 0.5 µM
  Cat. 2 concentrations: Phenotypic effects: 0.75 to 1 µM
  Cat. 3 concentrations: Mortality: 0.002 mM

## CC/C(=C(/CC)c1ccc(O)cc1)c1ccc(O)cc1 [Diethylbestrol, Diethylstilbestrol]
Macrostomum lignano; [15]
  Pred: + (+ in case 20% or more worms having 30 or more mitotic stem cells)
  proportion of worms having 30 or more mitotic stem cells: 100%
Macrostomum lignano; 0.3125 μM, Experiment 2, two weeks exposure
  proportion of worms having 30 or more mitotic stem cells: 12.5%
Macrostomum lignano; [16]
  Pred: + (+ in case 20% or more worms having 30 or more mitotic stem cells)
  proportion of worms having 30 or more mitotic stem cells: 33.3%
Macrostomum lignano; [17]
  Pred: + (+ in case 20% or more worms having 30 or more mitotic stem cells)
  proportion of worms having 30 or more mitotic stem cells: 27.3%
Macrostomum lignano; [18]
  Pred: + (+ in case 20% or more worms having 30 or more mitotic stem cells)
  proportion of worms having 30 or more mitotic stem cells: 50%
Macrostomum lignano; [19]
  Pred: + (+ in case 20% or more worms having 30 or more mitotic stem cells)
  proportion of worms having 30 or more mitotic stem cells: 22.2%
Macrostomum lignano; Experiment 1, all concentrations, two weeks exposure
  Prediction of the experiment: Pos
Macrostomum lignano; [10]
  Prediction of the experiment: Pos
Macrostomum lignano; [11]
  Prediction of the experiment: Pos
Macrostomum lignano
  Overall prediction: Pos
Macrostomum lignano; two weeks exposure
  prediction by the assay in the experiments: predicted positive for all three experiments

## CCC1(c2ccccc2)C(=O)NC(=O)NC1=O [S-PB, sodium phenobarbital]
Schmidtea mediterranea [3]; S-PB, exposure two weeks
  Cat. 1 concentrations: No effects on phenotype: 1000 µM
  Cat. 2 concentrations: Phenotypic effects: 2000 µM
  Cat. 3 concentrations: Mortality: 4 mM
Schmidtea mediterranea [3]; [12]
  Number of animals with Behavior effects: 2/2

## CN(C)CCN(Cc1cccs1)c1ccccn1 [MPH, methapyrilene hydrochloride]
Schmidtea mediterranea [3]; [13]
  Number of animals with Behavior effects: 8/8
  Number of animals with Body size effects: 8/8
